Measured values as given in patent US8044201B2, “Stem cell cultures” (The Scripps Research Institute, priority 2008, dated 2011).
“Also recorded” adds a separate entry of the source.

Columns and labels:
hESCs [1] = assay: ALP positive colony formation by dissociated hESCs (clonal / low-density survival assay); type: cell-based, human; conditions: PKC agonist treatment
Method: (§1) Human ESC lines H1, HUES7 and HUES9 were cultured on irradiated MEF feeder cells in DMEM-F12 supplemented with 2 mM L-glutamine, 1× nonessential amino acids, 20% serum replacement (Invitrogen) and 10 ng/ml basic Fibroblast growth factor (Invitrogen). Chemically-defined and feeder-free hESC culture was described previously (Yao, S. et al., Proc Natl Acad Sci USA 103 (18):6907-6912 (2006)). Briefly, hESCs were grown on Matrigel-coated tissue culture plates in N2B27-CDM (DMEM-F12 supplemented with 1× N2 supplements, 1× B27 supplements, 2 mM L-glutamine, 0.11 mM 2-mercaptoethanol, 1× nonessential amino acids, and 0.5 mg/ml BSA (fraction V)) and 20 ng/ml bFGF. Human ESCs were passaged every 5-6 days with 0.05% trypsin.
For clonal survival assays, single hESCs were diluted to clonal density and plated onto 96-well Matrigel-coated plate. For low-density survival assays, 500 cells were plated onto 96-well Matrigel-coated plate. To visualize hESC colonies, cultures were fixed in 4% paraformaldehyde in PBS for 5 min, washed once in PBS, then stained for alkaline phosphatase activity as described in manufacturer's instructions. ALP positive colonies were counted on an inverted microscope.

hESCs [2] = assay: Cell adhesion assay of dissociated hESCs; type: cell-based, human
Method: Cell adhesion assays were performed in 96-well microtiter plates coated with Matrigel. After trypsin, hESCs were resuspended in the chemically-defined media containing the desired compounds. Cells were then added to the microtiter wells and incubated for 3 h at 37° C. Unbound and loosely bound cells were removed by shaking and washing, and the remaining cells were then fixed immediately. The wells were washed 3 times with 200 μl of H2O, and attached cells were stained with Crystal Violet (Sigma). The absorbance of each well at 570 nm was then measured. For experiments with blocking antibodies, cells were pre-incubated with antibodies on ice for 30 min, and adhesion assays were performed in the presence of antibodies. Each sample was assayed independently for three times.

β1 integrin = assay: Active conformation of β1 integrin in hESCs (HUTS-21 binding, flow cytometry and immunostaining); type: cell-based, human; conditions: for level of HUTS-21 binding (activated β1 integrin): trypsin-dissociated hESCs
Excerpt: To gain insights into the mechanism of β1 integrin regulation by Tzv and Ptn, we investigated whether the compounds' effect is due to changes of integrin expression. In contrast to E-cadherin, β1 integrin was not cleaved by trypsin. […] Thus, Tzv and Ptn are likely to affect cell adhesion by modulating integrin activity (FIGS. 3d,e). To examine the effects of compound treatment on the activity of β1 integrin, we used the monoclonal antibody HUTS-21, which specifically binds to the activated form of the β1 integrin (Luque, A. et al., J Biol Chem 271 (19):11067-11075 (1996)).
(§2) To assess the expression of E-cadherin, activated integrin and SSEA4, dissociated cells (3×10^5) were washed with PBS and resuspended in PBS containing 2% goat serum. Cells were then incubated with the appropriate antibody for 1 h at 4° C., washed with the blocking solution, and labeled with FITC-conjugated secondary antibody for 30 min at 4° C. Cells were then washed and analyzed on a FACS Calibur flow cytometer.

hESCs [3] = assay: Cell death / survival analysis of dissociated hESCs in adherent (Matrigel) or suspension culture; type: cell-based, human; conditions: for survival of dissociated hESCs in adherent culture: Matrigel-coated plate; for survival of dissociated hESCs in adherent culture / survival of dissociated hESCs in suspension culture: 2 μM
Method: as §1
The hESCs under different treatments were dissociated by trypsin and fixed by 4% paraformaldehyde. And the staining was carried out according to the manufacturer's instructions (MBL Laboratories, Watertown, Mass.). After staining, samples were analysed by flow cytometry using a FACS Calibur flow cytometer (BD).

hESCs [4] = assay: Long-term serial passage of hESCs in Tzv or Ptn-containing chemically-defined medium (morphology, pluripotency markers, karyotype); type: cell-based, human; conditions: serially passaged for more than 20 generations in compound-containing chemically-defined medium
Method: as §1
Immunostaining was performed as described previously (Yao, S. et al., Proc Natl Acad Sci USA 103 (18):6907-6912 (2006)). Briefly, cells were fixed with 4% paraformaldehyde at room temperature (RT) for 15 min. The cells were then incubated at RT in blocking buffer for 1 hour. […]
Teratoma formation experiments were performed by injecting 3-5 million hESCs (maintained in the presence of compounds Tvz or Ptn) under the kidney capsule of nude mice. After 4-5 weeks, all mice developed teratomas, which were removed and then immunohistologically analyzed by The Scripps Research Institute Research Histology Service and Animal Resources. […]

growth factor receptor = assay: Western blot of growth factor receptor phosphorylation in hESCs; type: cell-based, human; conditions: hESCs treated for 2 h, DMSO control
ERK and AKT = assay: Western blot of ERK and AKT phosphorylation in dissociated hESCs; type: cell-based, human
[5] = test system: epithelial to mesenchymal transition/EMT; assay: Epithelial to mesenchymal transition (EMT) / MET; type: cell-based
[6] = test system: human embryonic stem cell, mouse embryonic stem cell, multiple neural stem cells, skin stem cells, mesenchymal stem cells, hematopoietic stem cells, stromal …; assay: Survival and anti-differentiation of stem cells ex vivo after isolation; type: cell-based; conditions: contacted immediately after isolation of the cells
Excerpt: In some embodiments, the invention provides methods of promoting survival and anti-differentiation in stem cells ex-vivo.

E-cadherin = E-cadherin level in hESCs after trypsin dissociation (Western blot, flow cytometry, semiquantitative RT-PCR); type: cell-based, human
Method: as §2

[7] = test system: E-cadherins to EGFR1 and ERB2; assay: Immunoprecipitation of E-cadherins with EGFR1 and ERB2 in hESCs; type: cell-based, human
Excerpt: ALP detection kit and integrin antibodies were from Chemicon. AG825 (Erb2 inhibitor), AG1478 (EGFR inhibitor), PPP (IGFR1 inhibitor) were purchased from Calbiochem. Antibodies raised against the intracytoplasmic tail of E-cadherins (Transduction Laboratories, Lexington, Ky.) were used for immunoprecipitation. The antibody TS2/16 was from Pierce. Antibodies to the extracellular domain of E-cadherin molecule were from Zymed (Carlsbad). Antibodies against extracellular signal-regulated kinase/MAPK, EGFR1, ERB2, GADPH and phosphorylated form of AKT were from Cell Signaling. Mouse monoclonal anti-phosphotyrosine (4G-10 clone) was from Upstate Biotechnology. Ptn and Tzv were added to culture medium at 2 μM.

[8] = test system: primary human pancreatic islets/beta cells; assay: Cell death of dispersed primary pancreatic islets/beta cells plated as single cells on matrigel or laminin; type: cell-based; conditions: 1-2 mM added to the media
Method: For example, the inventors dispersed primary human pancreatic islets/beta cells plated as single cells onto a tissue culture plate that was coated with matrigel or laminin. […] Accordingly, in some embodiments, a compound of the present invention is administered to an individual in need of pancreatic beta and/or islet cells, wherein administration of the compound results in an increase in the number of beta or islet cells in the individual.

[9] = test system: mouse P1 cortical explants; assay: Neurite / axon outgrowth from cortical explants; type: cell-based
Method: Compounds of formula I and III (i.e., Tvz and Ptn) are effective at promoting axonal regeneration and functional recovery in injured central nervous system. […] Tzv (3 μM) was tested on mouse P1 cortical explants, with axon outgrowth as an outcome read-out. Tzv was added to the medium 20 minutes after plating, with DMSO as a control. […] Accordingly, in some embodiments, a compound of the present invention is administered to an individual having a central nervous system injury or who is in need or would otherwise benefit from axonal regeneration.

Row | level of HUTS-21 binding (activated β1 integrin) (β1 integrin) | Structure (SMILES) | survival of dissociated hESCs in adherent culture (hESCs [3]) | survival of dissociated hESCs in suspension culture (hESCs [3]) | maintenance of hESC morphology, pluripotency markers and karyotype (hESCs [4]) | adhesion of dissociated hESCs to Matrigel or laminin (hESCs [2]) | adhesion of hESCs to gelatin or poly-lysine (hESCs [2]) | induction of MET and inhibition of EMT [5] | survival and anti-differentiation of stem cells [6] | also measured
1 |  | CCCCCCCCCCCCCC(=O)O[C@@H]1[C@@H](C)[C@@]2(O)[C@@H](C=C(CO)C[C@]3(O)C(=O)C(C)=C[C@@H]23)[C@@H]2C(C)(C)[C@]12OC(C)=O [PMA, phorbol 12-myristate 13-acetate, reference compound] |  |  |  |  |  |  |  | colony formation of dissociated hESCs (hESCs [1]): substantial increase; cell adhesion of dissociated hESCs (hESCs [2]; PKC agonist treatment): substantial increase; integrin activation (β1 integrin; dissociated hESCs, PMA 10 nM (FIG. 3k)): integrin activation
2 | increased | O=S(=O)(NCC1CC1)c1ccc(Nc2nccc(N3CCCc4cc(O)ccc43)n2)cc1 [Ptn, N-(cyclopropylmethyl)-4-(4-(6-hydroxy-3,4-dihydroquinolin-1(2H)-yl)pyrimidin-2-ylamino)benzenesulfonamide] | promoted survival; also recorded: dramatic effect on survival | no effect | maintained the characteristic morphology of hESCs, the expression of typical pluripotency markers, and normal karyotype | dramatically increased adhesion | not affected | induce MET (the reverse of EMT) and inhibit EMT | effective in promoting survival and anti-differentiation | phosphorylation of growth factor receptor (growth factor receptor): significantly increased; phosphorylation of ERK and AKT (ERK and AKT): increased
3 | increased | O=C(NCc1ccccc1)c1csc(Nc2ccncn2)n1 [Tzv, N-benzyl-2-(pyrimidin-4-ylamino)thiazole-4-carboxamide] | greatly improved survival; also recorded: dramatic effect on survival | greatly improved survival | maintained the characteristic morphology of hESCs, the expression of typical pluripotency markers, and normal karyotype | dramatically increased adhesion | not affected | induce MET (the reverse of EMT) and inhibit EMT | effective in promoting survival and anti-differentiation | cell aggregate formation in suspension (hESCs [3]; hESCs grown in suspension): formed nice cell aggregates; full-length E-cadherin expression (Western blot) (E-cadherin; hESCs after trypsin dissociation): significantly increased; cell surface E-cadherins (flow cytometry) (E-cadherin; hESCs after trypsin treatment): significantly increased; E-cadherin transcripts (semiquantitative RT-PCR) (E-cadherin; vs mock controls): comparable amounts; binding of E-cadherins to EGFR1 and ERB2 [7]: induced binding; cell death of pancreatic islets/beta cells [8]: cell death was inhibited; axon outgrowth ([9]; 3 μM, added 20 minutes after plating, observed 4 days, DMSO control): dramatic effect in promoting axon outgrowth; neurite outgrowth from primary neuronal cells ([9]; primary neuronal cells from mice): promote neurite outgrowth
4 |  | CN(C)CCCn1cc(C2=C(c3c[nH]c4ccccc34)C(=O)NC2=O)c2ccccc21 [bisindolylmaleimide I, reference compound] |  |  |  |  |  |  |  | effect on increased cell adhesion induced by Ptn (hESCs [2]; in combination with Ptn): antagonize; effect on cell adhesion induced by Tzv (hESCs [2]; in combination with Tzv): no effect
